The values below are quoted from earlier work in patent publication US20210251886A1, “ORAL MUCOSAL DELIVERY SYSTEMS COMPRISING MONOPHASIC CONCENTRATE OF TERIPARATIDE” (ZIM LABORATORIES LIMITED, priority 2018, published 2021).

The bioavailability is dose-corrected exposure relative to a reference, in per cent.

The conditions of this data set: dogs.

Like-named read-outs stand apart in the source and are kept apart here.

As for `CC[C@H](C)[C@H](NC(=O)[C@H](CCC(=O)O)NC(=O)[C@H](CO)NC(=O)[C@@H](NC(=O)[C@@H](N)CO)C(C)C)C(=O)N[C@@H](CCC(N)=O)C(=O)N[C@@H](CC(C)C)C(=O)N[C@@H](CCSC)C(=O)N[C@@H](Cc1cnc[nH]1)C(=O)N[C@@H](CC(N)=O)C(=O)N[C@@H](CC(C)C)C(=O)NCC(=O)N[C@@H](CCCCN)C(=O)N[C@@H](Cc1cnc[nH]1)C(=O)N[C@@H](CC(C)C)C(=O)N[C@@H](CC(N)=O)C(=O)N[C@@H](CO)C(=O)N[C@@H](CCSC)C(=O)N[C@@H](CCC(=O)O)C(=O)N[C@@H](CCCN=C(N)N)C(=O)N[C@H](C(=O)N[C@@H](CCC(=O)O)C(=O)N[C@@H](Cc1c[nH]c2ccccc12)C(=O)N[C@@H](CC(C)C)C(=O)N[C@@H](CCCN=C(N)N)C(=O)N[C@@H](CCCCN)C(=O)N[C@@H](CCCCN)C(=O)N[C@@H](CC(C)C)C(=O)N[C@@H](CCC(N)=O)C(=O)N[C@@H](CC(=O)O)C(=O)N[C@H](C(=O)N[C@@H](Cc1cnc[nH]1)C(=O)N[C@@H](CC(N)=O)C(=O)N[C@@H](Cc1ccccc1)C(=O)O)C(C)C)C(C)C` [PTH (1-34)], the bioavailability result reads like this: (buccal route) “about 3.3%”; (oral route) 4.8%.
